Key:
[1] = target: EGFR (UniProt P00533); settings: for inhibition: concentration not given here
[2] = target: EGFR (human) (UniProt P00533); settings: mda468
[3] = target: EGFR (human) (UniProt P00533); settings: mdv-7
[4] = target: EGFR (human) (UniProt P00533); settings: mda231
[5] = target: EGFR (murine) (UniProt P00533); settings: fibroblast
[6] = target: EGFR (human) (UniProt P00533); settings: a431
[7] = target: EGFR (human) (UniProt P00533); settings: a549
[8] = target: EGFR (murine) (UniProt P00533); settings: fibroblast; remark: listed apart in the source
[9] = target: EGFR (human) (UniProt P00533); settings: ht-29

Chain of EGFR (P00533 whole entry, looked up): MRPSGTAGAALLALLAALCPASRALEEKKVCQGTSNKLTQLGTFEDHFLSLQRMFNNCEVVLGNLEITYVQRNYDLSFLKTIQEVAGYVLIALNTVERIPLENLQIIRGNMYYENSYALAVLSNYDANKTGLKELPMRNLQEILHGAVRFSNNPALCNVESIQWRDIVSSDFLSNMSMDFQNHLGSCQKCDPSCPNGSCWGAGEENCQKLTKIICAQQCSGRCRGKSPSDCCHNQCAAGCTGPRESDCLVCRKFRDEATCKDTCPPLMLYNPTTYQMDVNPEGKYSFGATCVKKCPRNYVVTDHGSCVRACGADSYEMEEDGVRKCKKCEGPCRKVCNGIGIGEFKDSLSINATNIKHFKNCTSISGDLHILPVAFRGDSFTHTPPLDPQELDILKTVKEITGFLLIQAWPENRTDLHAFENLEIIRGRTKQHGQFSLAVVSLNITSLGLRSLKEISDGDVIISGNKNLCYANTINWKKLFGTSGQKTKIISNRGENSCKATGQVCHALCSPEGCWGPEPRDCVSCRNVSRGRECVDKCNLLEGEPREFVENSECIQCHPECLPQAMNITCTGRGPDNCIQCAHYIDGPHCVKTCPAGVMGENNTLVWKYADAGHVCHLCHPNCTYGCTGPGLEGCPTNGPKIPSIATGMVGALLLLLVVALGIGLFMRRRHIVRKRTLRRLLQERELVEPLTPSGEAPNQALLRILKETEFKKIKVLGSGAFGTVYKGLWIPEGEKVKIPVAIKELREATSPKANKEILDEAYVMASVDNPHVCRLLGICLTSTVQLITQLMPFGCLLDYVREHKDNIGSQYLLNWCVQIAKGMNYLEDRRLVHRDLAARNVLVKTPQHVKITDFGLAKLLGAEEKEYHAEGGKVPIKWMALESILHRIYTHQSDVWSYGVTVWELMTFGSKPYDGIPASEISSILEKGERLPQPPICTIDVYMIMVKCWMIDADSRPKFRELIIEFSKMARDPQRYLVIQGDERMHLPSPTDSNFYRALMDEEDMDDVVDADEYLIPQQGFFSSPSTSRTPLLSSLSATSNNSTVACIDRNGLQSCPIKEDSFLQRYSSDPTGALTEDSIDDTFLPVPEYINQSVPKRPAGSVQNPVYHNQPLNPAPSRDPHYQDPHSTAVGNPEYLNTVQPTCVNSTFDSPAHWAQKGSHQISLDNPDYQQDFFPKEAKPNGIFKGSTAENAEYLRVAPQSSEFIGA
Chain of EGFR (human) (P00533 whole entry, looked up): as above
Chain of EGFR (murine) (P00533 whole entry, looked up): as above

SMILES | inhibition [1] [%] | IC50 [1] [µM] | also measured
O=C(CCc1c(S)[nH]c2ccccc12)NCc1ccccc1 | 43 |  | 
O=C(O)Cc1c(S)[nH]c2ccccc12 |  | 14.9 | 
CCOC(=O)CCc1c(S)n(C)c2ccccc12 | 3 |  | 
CCOC(=O)CCc1c(S)[nH]c2ccccc12 | 10 |  | 
COC(=O)CCCc1c(S)n(C)c2ccccc12 | 2 |  | 
Cn1c(S)c(C(=O)c2ccc(C(=O)O)cc2)c2ccccc21 |  | 8.7 | 
CCOC(=O)Cc1c(S)n(C)c2ccccc12 | 4 |  | 
Cn1c(S)c(C(=O)Nc2ccccc2)c2cc(Cl)ccc21 |  | 9 | 
O=C(O)CCc1c(S)[nH]c2ccccc12 |  | 1.3 | 
Cn1c(S)c(C(=O)Nc2ccccc2)c2ccccc21 |  | 1 | IC50 [2]: 43 µM; IC50 [3]: 39 µM; IC50 [4]: 15 µM; IC50 [5]: 64 µM; IC50 [6]: 62 µM; IC50 [7]: 30 µM; IC50 [8]: 2 µM; IC50 [9]: 55 µM
O=C(Cc1c(S)[nH]c2ccccc12)NCc1ccccc1 |  | 25 | 
Cn1c(S)c(CCCC(=O)O)c2ccccc21 |  | 23 | 
Cn1c(S)c(CCC(=O)O)c2ccccc21 |  | 8.5 | 
O=C(O)CCCc1c(S)[nH]c2ccccc12 |  | 6.8 | 
COC(=O)Cc1c(S)[nH]c2ccccc12 | 43 |  | 
NC(=O)CCc1c(S)[nH]c2ccccc12 |  | 22 | 
